{
  "source": "ChEMBL document CHEMBL4507298",
  "about": "(2021)",
  "key": {"[1]": {"target": "Tyrosine-protein kinase Blk (Homo sapiens) (UniProt P51451)", "conditions": "Compound concentration 1000.0 nM; call rule not given here"}, "[2]": {"target": "Cyclin-dependent kinase-like 3 (Homo sapiens) (UniProt Q8IVW4)", "conditions": "Compound concentration 1000.0 nM"}, "[3]": {"target": "Serine/threonine-protein kinase/endoribonuclease IRE1 (Homo sapiens) (UniProt O75460)", "conditions": "Compound concentration 1000.0 nM"}, "[4]": {"target": "Serine/threonine-protein kinase LATS2 (Homo sapiens) (UniProt Q9NRM7)", "conditions": "Compound concentration 1000.0 nM"}, "[5]": {"target": "Voltage-gated L-type calcium channel (verapamil site) (Homo sapiens, UniProt O60840+Q01668+Q13698+Q13936)", "assay": "Ca2+ channel (L, verapamil site) CEREP ligand profiling", "type": "protein assay", "conditions": "compound concentration 10 uM"}, "[6]": {"target": "Voltage-gated L-type calcium channel (DHP site) (Homo sapiens, UniProt O60840+Q01668+Q13698+Q13936)", "assay": "Ca2+ channel (L, DHP site) CEREP ligand profiling", "type": "protein assay", "conditions": "compound concentration 10 uM"}, "[7]": {"target": "Ribosomal protein S6 kinase alpha-6 (Homo sapiens) (UniProt Q9UK32)", "sequence (Q9UK32 whole entry)": "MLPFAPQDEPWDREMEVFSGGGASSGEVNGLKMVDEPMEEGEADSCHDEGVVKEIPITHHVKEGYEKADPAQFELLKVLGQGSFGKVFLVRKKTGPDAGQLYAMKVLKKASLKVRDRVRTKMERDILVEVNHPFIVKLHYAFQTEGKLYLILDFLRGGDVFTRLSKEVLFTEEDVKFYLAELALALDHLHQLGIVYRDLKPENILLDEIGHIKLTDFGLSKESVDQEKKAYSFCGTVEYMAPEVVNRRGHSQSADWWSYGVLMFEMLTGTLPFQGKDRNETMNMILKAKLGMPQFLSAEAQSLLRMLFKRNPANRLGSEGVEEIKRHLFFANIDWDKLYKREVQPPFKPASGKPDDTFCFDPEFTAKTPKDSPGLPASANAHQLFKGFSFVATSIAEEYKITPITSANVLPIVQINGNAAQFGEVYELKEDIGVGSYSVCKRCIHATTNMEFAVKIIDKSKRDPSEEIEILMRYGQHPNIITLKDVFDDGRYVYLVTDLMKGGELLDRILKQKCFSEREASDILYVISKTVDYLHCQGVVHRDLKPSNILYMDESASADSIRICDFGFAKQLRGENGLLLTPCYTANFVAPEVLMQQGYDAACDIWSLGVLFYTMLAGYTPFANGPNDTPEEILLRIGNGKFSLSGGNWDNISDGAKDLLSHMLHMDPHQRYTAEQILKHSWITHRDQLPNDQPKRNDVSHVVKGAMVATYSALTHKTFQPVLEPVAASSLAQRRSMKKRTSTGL", "conditions": "Compound concentration 1000.0 nM"}, "[8]": {"target": "Ribosomal protein S6 kinase alpha-6 (Homo sapiens) (UniProt Q9UK32)", "conditions": "Compound concentration 1000.0 nM", "remark": "listed apart in the source"}, "[9]": {"target": "TRAF2 and NCK-interacting protein kinase (Homo sapiens) (UniProt Q9UKE5)", "conditions": "Compound concentration 1000.0 nM"}, "[10]": {"target": "Sodium-dependent dopamine transporter (Homo sapiens) (UniProt Q01959)", "assay": "DA transporter (h) CEREP ligand profiling", "conditions": "Compound concentration 10.0 uM"}, "[11]": {"test_system": "Proto-oncogene tyrosine-protein kinase receptor Ret (Homo sapiens), P07949 [M918T]", "conditions": "Compound concentration 1000.0 nM"}, "[12]": {"target": "Dual specificity mitogen-activated protein kinase kinase 7 (Homo sapiens) (UniProt O14733)", "conditions": "Compound concentration 1000.0 nM"}, "[13]": {"target": "GABA-A receptor; anion channel (Homo sapiens) (UniProt P14867+P47870+P18507+P28472+P48169+Q99928+Q9UN88+P34903+O00591+O14764+Q8N1C3+P18505+P78334+P47869+P31644+Q16445)", "assay": "GABAA CEREP ligand profiling", "type": "protein-complex assay", "conditions": "Compound concentration 10.0 uM"}, "[14]": {"target": "Serine/threonine-protein kinase ICK (Homo sapiens) (UniProt Q9UPZ9)", "conditions": "Compound concentration 1000.0 nM"}, "[15]": {"target": "Neuropeptide Y receptor type 1 (Homo sapiens) (UniProt P25929)", "assay": "Y1 (h) CEREP ligand profiling", "conditions": "Compound concentration 10.0 uM"}, "[16]": {"target": "Mitogen-activated protein kinase kinase kinase kinase 5 (Homo sapiens) (UniProt Q9Y4K4)", "conditions": "Compound concentration 1000.0 nM"}, "[17]": {"target": "Dual 3',5'-cyclic-AMP and -GMP phosphodiesterase 11A (Homo sapiens) (UniProt Q9HCR9)", "sequence (Q9HCR9 whole entry, looked up)": "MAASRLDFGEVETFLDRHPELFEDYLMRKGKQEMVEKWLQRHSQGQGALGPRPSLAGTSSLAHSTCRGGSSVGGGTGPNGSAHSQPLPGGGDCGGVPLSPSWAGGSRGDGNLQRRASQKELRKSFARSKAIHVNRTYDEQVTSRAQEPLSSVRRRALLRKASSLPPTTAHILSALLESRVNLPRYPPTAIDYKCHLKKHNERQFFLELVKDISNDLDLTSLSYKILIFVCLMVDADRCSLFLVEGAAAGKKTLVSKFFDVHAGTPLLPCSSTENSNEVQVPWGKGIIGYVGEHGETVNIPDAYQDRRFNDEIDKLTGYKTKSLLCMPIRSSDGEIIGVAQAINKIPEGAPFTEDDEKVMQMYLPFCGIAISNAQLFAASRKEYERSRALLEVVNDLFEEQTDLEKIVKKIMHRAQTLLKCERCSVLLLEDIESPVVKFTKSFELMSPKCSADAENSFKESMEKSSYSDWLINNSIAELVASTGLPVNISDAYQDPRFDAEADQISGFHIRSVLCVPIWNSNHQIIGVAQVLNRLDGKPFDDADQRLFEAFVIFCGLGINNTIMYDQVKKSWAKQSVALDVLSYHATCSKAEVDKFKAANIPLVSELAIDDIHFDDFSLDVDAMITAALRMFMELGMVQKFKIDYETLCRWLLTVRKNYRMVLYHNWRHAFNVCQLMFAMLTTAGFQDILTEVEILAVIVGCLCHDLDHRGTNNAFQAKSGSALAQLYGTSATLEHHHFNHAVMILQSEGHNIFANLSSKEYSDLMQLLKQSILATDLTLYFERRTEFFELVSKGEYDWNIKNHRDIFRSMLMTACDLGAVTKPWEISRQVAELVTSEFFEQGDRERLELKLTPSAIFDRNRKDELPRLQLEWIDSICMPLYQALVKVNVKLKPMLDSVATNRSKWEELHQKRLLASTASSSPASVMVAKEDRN", "assay": "PDE11 (h) CEREP ligand profiling", "conditions": "Compound concentration 10.0 uM"}, "[18]": {"target": "C-X-C chemokine receptor type 4 (Homo sapiens) (UniProt P61073)", "sequence (P61073 whole entry)": "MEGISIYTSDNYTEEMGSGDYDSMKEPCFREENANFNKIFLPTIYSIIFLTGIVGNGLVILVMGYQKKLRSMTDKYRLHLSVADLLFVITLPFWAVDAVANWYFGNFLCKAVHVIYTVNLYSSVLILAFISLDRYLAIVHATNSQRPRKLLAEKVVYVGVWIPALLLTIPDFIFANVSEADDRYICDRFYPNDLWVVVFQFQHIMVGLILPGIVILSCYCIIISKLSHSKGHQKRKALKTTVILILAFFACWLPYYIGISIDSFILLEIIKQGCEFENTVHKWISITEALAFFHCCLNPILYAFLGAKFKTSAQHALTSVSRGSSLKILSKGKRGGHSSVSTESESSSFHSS", "assay": "CXCR4 (h) CEREP ligand profiling", "conditions": "Compound concentration 10.0 uM"}, "[19]": {"target": "Ephrin type-A receptor 5 (Homo sapiens) (UniProt P54756)", "conditions": "Compound concentration 1000.0 nM"}, "[20]": {"target": "D(3) dopamine receptor (Homo sapiens) (UniProt P35462)", "assay": "D3 (h) CEREP ligand profiling", "conditions": "Compound concentration 10.0 uM"}, "[21]": {"target": "Myosin light chain kinase, smooth muscle (Homo sapiens) (UniProt Q15746)", "conditions": "Compound concentration 1000.0 nM"}, "[22]": {"target": "Serine/threonine-protein kinase TAO3 (Homo sapiens) (UniProt Q9H2K8)", "conditions": "Compound concentration 1000.0 nM"}, "[23]": {"target": "Bone morphogenetic protein receptor type-1B (Homo sapiens) (UniProt O00238)", "conditions": "Compound concentration 1000.0 nM"}, "[24]": {"target": "5-hydroxytryptamine receptor 1A (Homo sapiens) (UniProt P08908)", "assay": "5-HT1A (h) CEREP ligand profiling", "conditions": "Compound concentration 10.0 uM"}, "[25]": {"target": "Ribosomal protein S6 kinase alpha-3 (Homo sapiens) (UniProt P51812)", "conditions": "Compound concentration 1000.0 nM"}, "[26]": {"target": "Ephrin type-A receptor 3 (Homo sapiens) (UniProt P29320)", "conditions": "Compound concentration 1000.0 nM"}, "[27]": {"target": "Serine/threonine-protein kinase D3 (Homo sapiens) (UniProt O94806)", "conditions": "Compound concentration 1000.0 nM"}, "[28]": {"target": "ALK tyrosine kinase receptor (Homo sapiens) (UniProt Q9UM73)", "conditions": "Compound concentration 1000.0 nM"}, "[29]": {"target": "Serine/threonine-protein kinase Nek4 (Homo sapiens) (UniProt P51957)", "conditions": "Compound concentration 1000.0 nM"}, "[30]": {"target": "Serine/threonine-protein kinase WNK2 (Homo sapiens) (UniProt Q9Y3S1)", "conditions": "Compound concentration 1000.0 nM"}, "[31]": {"target": "Bone morphogenetic protein receptor type-1A (Homo sapiens) (UniProt P36894)", "conditions": "Compound concentration 1000.0 nM"}, "[32]": {"test_system": "Phosphatidylinositol 4,5-bisphosphate 3-kinase catalytic subunit alpha isoform (Homo sapiens), P42336 [E542K]", "sequence (P42336 whole entry E542K, canonical isoform)": "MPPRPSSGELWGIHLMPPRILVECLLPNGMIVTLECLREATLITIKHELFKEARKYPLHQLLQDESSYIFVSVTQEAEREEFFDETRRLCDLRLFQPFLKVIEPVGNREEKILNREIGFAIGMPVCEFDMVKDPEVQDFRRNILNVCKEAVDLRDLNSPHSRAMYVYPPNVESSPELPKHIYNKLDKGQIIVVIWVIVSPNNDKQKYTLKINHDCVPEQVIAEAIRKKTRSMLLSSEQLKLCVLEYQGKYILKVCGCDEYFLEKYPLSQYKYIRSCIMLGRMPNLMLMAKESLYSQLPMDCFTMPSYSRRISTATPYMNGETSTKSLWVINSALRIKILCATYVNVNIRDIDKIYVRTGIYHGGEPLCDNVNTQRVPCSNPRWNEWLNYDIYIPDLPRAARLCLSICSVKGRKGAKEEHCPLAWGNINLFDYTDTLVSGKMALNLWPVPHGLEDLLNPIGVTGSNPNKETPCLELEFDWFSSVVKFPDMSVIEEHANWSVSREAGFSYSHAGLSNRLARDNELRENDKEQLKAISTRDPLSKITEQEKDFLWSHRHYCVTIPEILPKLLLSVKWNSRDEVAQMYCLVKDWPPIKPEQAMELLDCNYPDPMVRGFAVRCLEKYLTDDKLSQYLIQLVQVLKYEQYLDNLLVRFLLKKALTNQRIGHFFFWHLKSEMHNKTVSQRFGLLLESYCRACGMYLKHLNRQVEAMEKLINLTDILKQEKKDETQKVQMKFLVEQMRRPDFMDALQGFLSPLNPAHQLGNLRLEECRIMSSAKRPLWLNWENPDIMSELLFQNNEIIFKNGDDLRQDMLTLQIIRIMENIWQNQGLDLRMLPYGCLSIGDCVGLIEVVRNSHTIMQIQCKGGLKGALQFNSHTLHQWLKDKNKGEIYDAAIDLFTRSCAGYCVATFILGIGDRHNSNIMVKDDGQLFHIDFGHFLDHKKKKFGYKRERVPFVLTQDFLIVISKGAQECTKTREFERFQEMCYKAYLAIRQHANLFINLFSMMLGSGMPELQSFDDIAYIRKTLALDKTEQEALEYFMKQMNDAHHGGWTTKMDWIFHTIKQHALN", "conditions": "Compound concentration 1000.0 nM"}, "[33]": {"target": "Tyrosine-protein kinase ABL1 (Homo sapiens) (UniProt P00519)", "sequence (P00519 whole entry)": "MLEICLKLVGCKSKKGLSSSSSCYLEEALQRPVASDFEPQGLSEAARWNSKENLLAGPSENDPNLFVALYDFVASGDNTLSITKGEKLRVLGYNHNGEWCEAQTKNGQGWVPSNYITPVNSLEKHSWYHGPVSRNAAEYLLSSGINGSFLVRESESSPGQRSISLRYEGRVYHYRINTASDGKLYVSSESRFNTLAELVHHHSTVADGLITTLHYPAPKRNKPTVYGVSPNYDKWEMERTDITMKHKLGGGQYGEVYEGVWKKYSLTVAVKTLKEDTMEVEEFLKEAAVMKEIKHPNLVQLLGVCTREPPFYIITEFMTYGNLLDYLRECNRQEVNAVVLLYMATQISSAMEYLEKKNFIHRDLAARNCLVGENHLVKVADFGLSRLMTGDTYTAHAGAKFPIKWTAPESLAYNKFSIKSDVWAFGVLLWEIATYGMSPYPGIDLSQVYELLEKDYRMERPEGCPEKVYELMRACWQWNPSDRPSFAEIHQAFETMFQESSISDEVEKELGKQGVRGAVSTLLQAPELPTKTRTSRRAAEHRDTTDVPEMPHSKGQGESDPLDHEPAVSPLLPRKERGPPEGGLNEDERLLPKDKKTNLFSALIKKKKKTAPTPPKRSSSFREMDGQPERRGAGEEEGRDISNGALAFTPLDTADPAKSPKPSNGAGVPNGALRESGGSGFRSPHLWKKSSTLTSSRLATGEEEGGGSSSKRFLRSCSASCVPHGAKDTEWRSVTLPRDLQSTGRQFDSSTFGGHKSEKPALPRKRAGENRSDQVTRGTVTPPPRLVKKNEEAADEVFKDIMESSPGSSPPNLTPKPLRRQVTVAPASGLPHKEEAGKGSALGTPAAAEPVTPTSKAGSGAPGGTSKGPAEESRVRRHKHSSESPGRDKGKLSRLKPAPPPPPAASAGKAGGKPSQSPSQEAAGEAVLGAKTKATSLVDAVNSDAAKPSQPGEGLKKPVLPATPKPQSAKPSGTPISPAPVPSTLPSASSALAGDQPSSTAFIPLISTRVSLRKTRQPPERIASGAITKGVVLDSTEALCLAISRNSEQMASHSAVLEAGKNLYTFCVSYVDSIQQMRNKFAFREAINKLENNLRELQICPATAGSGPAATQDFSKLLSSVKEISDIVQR", "conditions": "Compound concentration 1000.0 nM"}, "[34]": {"test_system": "Phosphatidylinositol 4,5-bisphosphate 3-kinase catalytic subunit alpha isoform (Homo sapiens), P42336 [I800L]", "conditions": "Compound concentration 1000.0 nM"}, "[35]": {"target": "Tyrosine-protein kinase JAK2 (Homo sapiens) (UniProt O60674)", "conditions": "Compound concentration 1000.0 nM"}, "[36]": {"target": "Serine/threonine-protein kinase RIO3 (Homo sapiens) (UniProt O14730)", "conditions": "Compound concentration 1000.0 nM"}, "[37]": {"target": "MAO-A (Amine oxidase [flavin-containing] A) (Homo sapiens, UniProt P21397)", "sequence (P21397 whole entry)": "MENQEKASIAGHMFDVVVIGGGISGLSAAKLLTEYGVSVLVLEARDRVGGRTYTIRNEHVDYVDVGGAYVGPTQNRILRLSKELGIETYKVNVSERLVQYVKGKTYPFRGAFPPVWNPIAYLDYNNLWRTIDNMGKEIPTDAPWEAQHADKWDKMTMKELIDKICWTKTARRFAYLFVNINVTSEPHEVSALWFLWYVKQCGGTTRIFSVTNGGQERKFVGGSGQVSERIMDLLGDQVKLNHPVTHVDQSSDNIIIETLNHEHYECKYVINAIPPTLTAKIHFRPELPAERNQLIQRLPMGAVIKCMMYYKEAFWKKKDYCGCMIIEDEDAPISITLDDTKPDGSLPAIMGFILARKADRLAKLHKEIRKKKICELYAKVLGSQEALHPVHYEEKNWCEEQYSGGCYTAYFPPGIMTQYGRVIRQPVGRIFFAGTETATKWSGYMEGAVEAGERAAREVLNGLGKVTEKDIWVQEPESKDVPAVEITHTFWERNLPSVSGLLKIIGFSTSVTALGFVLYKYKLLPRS", "assay": "MAO-A CEREP ligand profiling", "conditions": "compound concentration 10 uM"}, "[38]": {"target": "Sodium-dependent noradrenaline transporter (Homo sapiens) (UniProt P23975)", "assay": "NE transporter (h) CEREP ligand profiling", "conditions": "Compound concentration 10.0 uM"}, "[39]": {"target": "Serine/threonine-protein kinase pim-1 (Homo sapiens) (UniProt P11309)", "conditions": "Compound concentration 1000.0 nM"}, "[40]": {"target": "Cyclin-dependent kinase 4 (Homo sapiens) (UniProt P11802)", "sequence (P11802 whole entry)": "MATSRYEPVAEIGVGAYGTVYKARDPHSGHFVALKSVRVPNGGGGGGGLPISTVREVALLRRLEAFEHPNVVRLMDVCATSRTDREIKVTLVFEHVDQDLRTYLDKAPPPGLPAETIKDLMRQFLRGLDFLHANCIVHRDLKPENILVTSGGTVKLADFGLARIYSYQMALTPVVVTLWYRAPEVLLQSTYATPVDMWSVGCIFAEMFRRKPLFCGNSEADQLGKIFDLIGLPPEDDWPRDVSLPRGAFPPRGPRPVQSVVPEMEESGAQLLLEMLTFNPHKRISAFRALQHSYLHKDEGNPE", "conditions": "Compound concentration 1000.0 nM"}, "[41]": {"target": "Receptor-interacting serine/threonine-protein kinase 4 (Homo sapiens) (UniProt P57078)", "conditions": "Compound concentration 1000.0 nM"}},
  "data": [
    {"smiles": "COc1ccc2cc(OCC3(C(=O)O)CN(C(=O)c4ccc(F)cc4)C3)ccc2c1", "note": "[PF-04418948]", "values": [
      {"measurement": "residual activity", "setting": "[1]", "result": 93, "unit": "%"},
      {"measurement": "residual activity", "setting": "[2]", "result": 89, "unit": "%"},
      {"measurement": "residual activity", "setting": "[3]", "result": 80, "unit": "%"},
      {"measurement": "residual activity", "setting": "[4]", "result": 90, "unit": "%"},
      {"measurement": "inhibition at 10 µM", "setting": "[5]", "result": "-5% (not active)"},
      {"measurement": "inhibition at 10 µM", "setting": "[6]", "result": "-3% (not active)"},
      {"measurement": "residual activity", "setting": "[7]", "result": 78, "unit": "%"},
      {"measurement": "residual activity", "setting": "[8]", "result": 77, "unit": "%"},
      {"measurement": "residual activity", "setting": "[9]", "result": 61, "unit": "%"},
      {"measurement": "inhibition", "setting": "[10]", "result": 11, "unit": "%"},
      {"measurement": "residual activity", "setting": "[11]", "result": 75, "unit": "%"},
      {"measurement": "residual activity", "setting": "[12]", "result": 79, "unit": "%"},
      {"measurement": "inhibition", "setting": "[13]", "result": 16, "unit": "%"},
      {"measurement": "residual activity", "setting": "[14]", "result": 78, "unit": "%"},
      {"measurement": "inhibition", "setting": "[15]", "result": 1, "unit": "%"},
      {"measurement": "residual activity", "setting": "[16]", "result": 86, "unit": "%"},
      {"measurement": "inhibition", "setting": "[17]", "result": 14, "unit": "%"},
      {"measurement": "inhibition", "setting": "[18]", "result": 4, "unit": "%"},
      {"measurement": "residual activity", "setting": "[19]", "result": 78, "unit": "%"},
      {"measurement": "inhibition", "setting": "[20]", "result": 1, "unit": "%"},
      {"measurement": "residual activity", "setting": "[21]", "result": 84, "unit": "%"},
      {"measurement": "residual activity", "setting": "[22]", "result": 35, "unit": "%"},
      {"measurement": "residual activity", "setting": "[23]", "result": 95, "unit": "%"},
      {"measurement": "inhibition", "setting": "[24]", "result": 6, "unit": "%"},
      {"measurement": "residual activity", "setting": "[25]", "result": 85, "unit": "%"},
      {"measurement": "residual activity", "setting": "[26]", "result": 92, "unit": "%"},
      {"measurement": "residual activity", "setting": "[27]", "result": 91, "unit": "%"},
      {"measurement": "residual activity", "setting": "[28]", "result": 79, "unit": "%"},
      {"measurement": "residual activity", "setting": "[29]", "result": 94, "unit": "%"},
      {"measurement": "residual activity", "setting": "[30]", "result": 84, "unit": "%"},
      {"measurement": "residual activity", "setting": "[31]", "result": 88, "unit": "%"},
      {"measurement": "residual activity", "setting": "[32]", "result": 50, "unit": "%"},
      {"measurement": "residual activity", "setting": "[33]", "result": 78, "unit": "%"},
      {"measurement": "residual activity", "setting": "[34]", "result": 90, "unit": "%"},
      {"measurement": "residual activity", "setting": "[35]", "result": 89, "unit": "%"},
      {"measurement": "residual activity", "setting": "[36]", "result": 97, "unit": "%"},
      {"measurement": "inhibition at 10 µM", "setting": "[37]", "result": "3% (not active)"},
      {"measurement": "inhibition", "setting": "[38]", "result": -2, "unit": "%"},
      {"measurement": "residual activity", "setting": "[39]", "result": 96, "unit": "%"},
      {"measurement": "residual activity", "setting": "[40]", "result": 90, "unit": "%"},
      {"measurement": "residual activity", "setting": "[41]", "result": 66, "unit": "%"}
    ]}
  ]
}
